Test results from PMC8772704, “Quantification of Fosfomycin in Combination with Nine Antibiotics in Human Plasma and Cation-Adjusted Mueller-Hinton II Broth via LCMS” (Antibiotics, 2022).

Assays:
[1] = Plasma concentrations in four patients on fosfomycin-based combination therapy (pilot clinical feasibility study, LCMS/MS)
Method: For 20 µL of plasma/CAMHB sample, 20 µL of water and 20 µL of stable-isotope as internal standard (IS) were added and vortexed. 180 µL of acetonitrile was added for protein precipitation and subsequently removed by centrifugation (12,700 rpm for 10 min at 25 °C). Finally, 15 µL of the supernatant was diluted with 225 µL formic acid in water (0.1% v/v), and 10 µL was injected for LCMS/MS analysis. For the calibration curve and QCs, 20 µL of the corresponding antibiotic standard working solution was added instead of water.
Samples were analyzed using a Nexera X2 LCMS 8060 system (Shimadzu, Kyoto, Japan). […] Electrospray ionization employing positive and negative ion mode with multiple reaction monitoring was used for analyte quantification (Table S1). Data were acquired and analyzed using Shimadzu LabSolutions (Version 5.97).
The assay method described in this paper has been applied to a pilot clinical feasibility study to evaluate the proportion of patients with sub-optimal β-lactam levels and the need for dose adjustments in infected patients with unpredictable pharmacokinetics. We described a case series of four patients where they received in vitro guided antibiotic combination therapy using a fosfomycin-based combination regimen to treat a carbapenem-resistant Gram-negative bacteria infection. These four patients were recruited into the BLAST-2 study as the combination regimen contains a β-lactam antibiotic. In this case series, two were undergoing intermittent hemodialysis, and two patients had normal renal function. In the two patients on hemodialysis, they were on a dosing regimen of 8 g of fosfomycin on dialysis days (3 g at least 4 h before dialysis session and 5 g after completion of dialysis). The remaining two patients received 8 g of fosfomycin given every 8 h as a prolonged infusion.
Blood samples (2–3 mL from an indwelling catheter) were collected four times over a dosing interval of the β-lactam dosing regimen and centrifuged (10 min at 3000 rpm) (Eppendorf 5425R). The resultant plasma was stored (within 15 min of collection) at −80 °C until assay.

[2] = Long-term storage stability of antibiotics in combination with fosfomycin spiked in plasma/CAMHB (−30 °C, −80 °C); format: physicochemical; details: for Mean accuracy (%), Table S15 / Mean accuracy (%), Table S17 / Mean accuracy (%), Table S16 / Mean accuracy (%), Table S18: CAMHB; for Mean accuracy (%), Table S15 / Mean accuracy (%), Table S17 / Mean accuracy (%), Table S16 / Mean accuracy (%), Table S18 / Mean accuracy (%), Table S11 / Mean accuracy (%), Table S13 / Mean accuracy (%), Table S12 / Mean accuracy (%), Table S14: combination with fosfomycin; for Mean accuracy (%), Table S15 / Mean accuracy (%), Table S11: 2 weeks at -30 °C; for Mean accuracy (%), Table S17 / Mean accuracy (%), Table S13: 2 weeks at -80 °C; for Mean accuracy (%), Table S16 / Mean accuracy (%), Table S12: 4 weeks at -30 °C; for Mean accuracy (%), Table S18 / Mean accuracy (%), Table S14: 4 weeks at -80 °C; for Mean accuracy (%), Table S11 / Mean accuracy (%), Table S13 / Mean accuracy (%), Table S12 / Mean accuracy (%), Table S14: plasma; for Stability verdict (within ±15% of nominal): CAMHB samples stored at −30 °C, 4 weeks
Method: (§1) The stability of fosfomycin in combination with other antibiotics in plasma/CAMHB was evaluated under various operational conditions. Spiked plasma/CAMHB samples were evaluated at 7 h and 15 h in the autosampler at 4 °C. Long-term stability was evaluated up to 4 weeks of antibiotic-spiked plasma/CAMHB samples at LQC, MQC, and HQC concentrations stored at −30 °C and −80 °C.

[3] = 32-day stability of stock solutions stored at −80 °C; format: physicochemical; details: stock solution stored at -80 °C; peak area Day 32 vs Day 1
Method: Stability of stock solutions
All stock solutions of antibiotics and their corresponding stable-isotope variants were measured prior to cold storage at -80 °C and tested at 32 days later.
Stability was determined by comparing the peak area of each drug between its Day 1 and Day 32 measurement. Acceptable criteria for stability was met if the […]

[4] = Autosampler stability at 4 °C of extracted antibiotic-spiked plasma/CAMHB samples; details: for Mean accuracy (%), Table S8 / Mean accuracy (%), Table S10: CAMHB extracted samples; for Mean accuracy (%), Table S8 / Mean accuracy (%), Table S7: 7 h autosampler 4 °C; for Mean accuracy (%), Table S10 / Mean accuracy (%), Table S9: 15 h autosampler 4 °C; for Mean accuracy (%), Table S7 / Mean accuracy (%), Table S9: plasma extracted samples
Method: as §1

[5] = HQC: nominal mg/L CAZ 150, FEP 200, PIP 250, ATM 300, MEM 200, DOR 175, LVX 30, CEFT 250, TZB 87.5, TGC 20, AVI 30, FOF 1000
[6] = LQC: nominal 1 mg/L (levofloxacin, avibactam 0.5; fosfomycin 10)
[7] = MQC: nominal mg/L CAZ 75, FEP 100, PIP 150, ATM 150, MEM 100, DOR 87.5, LVX 15, CEFT 125, TZB 43.75, TGC 10, AVI 15, FOF 500

SMILES	Mean accuracy (%), Table S15 ([2]; HQC (nominal as E15))	Mean accuracy (%), Table S15 ([2]; LQC (nominal as E13))	Mean accuracy (%), Table S15 ([2]; MQC (nominal as E14))	Mean accuracy (%), Table S17 ([2]; HQC (nominal as E15))	Mean accuracy (%), Table S17 ([2]; LQC (nominal as E13))	Mean accuracy (%), Table S17 ([2]; MQC (nominal as E14))	Mean accuracy (%), Table S16 ([2]; HQC (nominal as E15))	Mean accuracy (%), Table S16 ([2]; LQC (nominal as E13))	Mean accuracy (%), Table S16 ([2]; MQC (nominal as E14))	Mean accuracy (%), Table S18 ([2]; HQC (nominal as E15))	Mean accuracy (%), Table S18 ([2]; LQC (nominal as E13))	Mean accuracy (%), Table S18 ([2]; MQC (nominal as E14))	Mean accuracy (%), Table S11 ([2]; HQC (nominal as E15))	Mean accuracy (%), Table S11 ([2]; LQC (nominal as E13))	Mean accuracy (%), Table S11 ([2]; MQC (nominal as E14))	Mean accuracy (%), Table S13 ([2]; HQC (nominal as E15))	Mean accuracy (%), Table S13 ([2]; LQC (nominal as E13))	Mean accuracy (%), Table S13 ([2]; MQC (nominal as E14))	Mean accuracy (%), Table S12 ([2]; HQC (nominal as E15))	Mean accuracy (%), Table S12 ([2]; LQC (nominal as E13))	further results
C[C@]1(Cn2ccnn2)[C@H](C(=O)O)N2C(=O)C[C@H]2S1(=O)=O [Tazobactam, tazobactam]	96.9%	93.8%	90.4%	108.9%	103.8%	103.7%	91.0%	69.7%	84.1%	106.4%	105.4%	103.3%	106.0%	107.9%	104.6%	95.4%	108.8%	104.7%	96.4%	102.0%	Mean total plasma concentration (range) ([1]; Patient 001, piperacillin/tazobactam 4.5 g every 6 h as a 1-h infusion): 20.9 to 58.3 mg/L; Mean accuracy (%), Table S12 ([2]; MQC (nominal as E14)): 98.7%; Mean accuracy (%), Table S14 ([2]; HQC (nominal as E15)): 100.5%; Mean accuracy (%), Table S14 ([2]; LQC (nominal as E13)): 100.7%; Mean accuracy (%), Table S14 ([2]; MQC (nominal as E14)): 101.3%; 32 Day Stability (%) [3]: 93.04%; Mean accuracy (%), Table S8 ([4]; HQC (nominal as E15)): 109.6%; Mean accuracy (%), Table S8 ([4]; LQC (nominal as E13)): 109.4%; Mean accuracy (%), Table S8 ([4]; MQC (nominal as E14)): 107.5%; Mean accuracy (%), Table S10 ([4]; HQC (nominal as E15)): 111.6%; Mean accuracy (%), Table S10 ([4]; LQC (nominal as E13)): 112.3%; Mean accuracy (%), Table S10 ([4]; MQC (nominal as E14)): 107.7%; Mean accuracy (%), Table S7 [4, 5]: 111.3%; Mean accuracy (%), Table S7 [4, 6]: 113.6%; Mean accuracy (%), Table S7 [4, 7]: 104.1%; Mean accuracy (%), Table S9 ([4]; HQC (nominal as E15)): 107.9%; Mean accuracy (%), Table S9 ([4]; LQC (nominal as E13)): 107.0%; Mean accuracy (%), Table S9 ([4]; MQC (nominal as E14)): 98.1%
C[C@H]1[C@H](NC(=O)/C(=N\OC(C)(C)C(=O)O)c2csc(N)n2)C(=O)N1S(=O)(=O)O [Aztreonam, aztreonam]	102.6%	102.2%	92.5%	100.2%	101.3%	95.1%	92.5%	66.5%	91.8%	98.4%	109.7%	96.0%	97.3%	103.1%	90.2%	97.2%	87.6%	94.5%	96.1%	106.4%	Mean total plasma concentration (range) ([1]; Patient 002, intermittent hemodialysis, aztreonam 2 g every 12 h as a 2-h infusion): 8.8 to 86.2 mg/L; Stability verdict (within ±15% of nominal) [2]: instability; Mean accuracy (%), Table S12 ([2]; MQC (nominal as E14)): 96.2%; Mean accuracy (%), Table S14 ([2]; HQC (nominal as E15)): 97.8%; Mean accuracy (%), Table S14 ([2]; LQC (nominal as E13)): 104.2%; Mean accuracy (%), Table S14 ([2]; MQC (nominal as E14)): 101.4%; 32 Day Stability (%) [3]: 99.75%; Mean accuracy (%), Table S8 ([4]; HQC (nominal as E15)): 99.3%; Mean accuracy (%), Table S8 ([4]; LQC (nominal as E13)): 109.7%; Mean accuracy (%), Table S8 ([4]; MQC (nominal as E14)): 107.5%; Mean accuracy (%), Table S10 ([4]; HQC (nominal as E15)): 104.4%; Mean accuracy (%), Table S10 ([4]; LQC (nominal as E13)): 103.7%; Mean accuracy (%), Table S10 ([4]; MQC (nominal as E14)): 104.7%; Mean accuracy (%), Table S7 [4, 5]: 109.1%; Mean accuracy (%), Table S7 [4, 6]: 100.8%; Mean accuracy (%), Table S7 [4, 7]: 101.2%; Mean accuracy (%), Table S9 ([4]; HQC (nominal as E15)): 107.9%; Mean accuracy (%), Table S9 ([4]; LQC (nominal as E13)): 105.8%; Mean accuracy (%), Table S9 ([4]; MQC (nominal as E14)): 102.4%
CO/N=C(\C(=O)N[C@@H]1C(=O)N2C(C(=O)[O-])=C(C[N+]3(C)CCCC3)CS[C@H]12)c1csc(N)n1 [Cefepime, cefepime]	95.3%	100.9%	102.0%	94.8%	108.8%	98.7%	93.2%	91.1%	94.9%	93.2%	107.6%	102.8%	89.3%	98.6%	87.2%	89.0%	102.0%	94.3%	89.6%	100.5%	Mean total plasma concentration (range) ([1]; Patient 003, intermittent hemodialysis, cefepime 1 g every 12 h as a 4-h infusion): 21.6 to 157.5 mg/L; Stability verdict (within ±15% of nominal) [2]: instability; Mean accuracy (%), Table S12 ([2]; MQC (nominal as E14)): 97.4%; Mean accuracy (%), Table S14 ([2]; HQC (nominal as E15)): 95.7%; Mean accuracy (%), Table S14 ([2]; LQC (nominal as E13)): 111.6%; Mean accuracy (%), Table S14 ([2]; MQC (nominal as E14)): 101.3%; 32 Day Stability (%) [3]: 108.51%; Mean accuracy (%), Table S8 ([4]; HQC (nominal as E15)): 96.7%; Mean accuracy (%), Table S8 ([4]; LQC (nominal as E13)): 112.0%; Mean accuracy (%), Table S8 ([4]; MQC (nominal as E14)): 103.5%; Mean accuracy (%), Table S10 ([4]; HQC (nominal as E15)): 101.7%; Mean accuracy (%), Table S10 ([4]; LQC (nominal as E13)): 106.6%; Mean accuracy (%), Table S10 ([4]; MQC (nominal as E14)): 114.1%; Mean accuracy (%), Table S7 [4, 5]: 86.5%; Mean accuracy (%), Table S7 [4, 6]: 94.2%; Mean accuracy (%), Table S7 [4, 7]: 101.1%
